Results from patent US7915393B2 (Corixa Corporation, priority 2001, dated 2011).
Marks after values point to notes of the source that are not given here.

Tests used:
[1] = tested on: WT1-specific CD8+ T cell clone and T cell line; assay: HLA-A2 peptide-MHC tetramer staining of WT1 specific T cells (flow cytometry); type: cell-based, human
[2] = tested on: DC2.4 A2/Kb cells pulsed with peptides; assay: Identification of CTL epitope: chromium release with peptide pulsed DC2.4 A2/Kb cells; type: in vivo; settings: HLA-A2/Kb transgenic mice
[3] = tested on: targets incubated with WT1 peptides (EL-4) and WT1 positive tumor cells (TRAMP-C, BLK-SV40); assay: CTL from mice immunized with WT1 peptides, chromium release assay; type: in vivo, B6 mice; settings: for generation of peptide specific CTL following immunization: spleen cells stimulated in vitro with peptide; for generation of peptide specific CTL following immunization / lysis of WT1 positive tumor cells by peptide specific CTL: chromium release; for lysis of WT1 positive tumor cells by peptide specific CTL: WT1 positive tumor cell lines (TRAMP-C, BLK-SV40)
Protocol: CTL were evaluated with a standard chromium release assay (Chen et al., Cancer Res. 54:1065-1070, 1994). 10^6 target cells were incubated at 37° C. with 150 μCi of sodium ^51Cr for 90 minutes, in the presence or absence of specific peptides. Cells were washed three times and resuspended in RPMI with 5% fetal bovine serum. For the assay, 10^4 51Cr-labeled target cells were incubated with different concentrations of effector cells in a final volume of 200 μl in U-bottomed 96-well plates. Supernatants were removed after 4 to 7 hours at 37° C., and the percentage specific lysis was determined by the formula: % specific lysis=100×(experimental release−spontaneous release)/(maximum release−spontaneous release).
P117-139, a peptide with motifs appropriate for binding to class I and class II MHC, was identified as described above using TSITES and BIMAS HLA peptide binding prediction analyses. Mice were immunized as described in Example 3. […] CTL were evaluated with a standard chromium release assay.

[4] = Clinical chemistry and hematology analysis, WT1 dose titration study; type: in vivo; settings: mice immunized with WT1 protein
Description: Special emphasis was put on evaluation of potential hematopoietic toxicity.

[5] = tested on: WT1 specific CD8+ T-cell clone; assay: IFN-γ ELISPOT recognition by human WT1 specific CD8+ T-cell clone (whole gene priming); type: cell-based; settings: HLA-A2 restricted clone
CD4 cells of splenocytes = assay: Intracellular interferon-gamma staining of CD4 cells (FACS) after immunization with WT-1 protein constructs; type: in vivo; settings: C57BL/6 mice
Protocol: Groups of four C57BL/6 mice were immunized subcutaneously with 20 μg WT-1 proteins: WT-1-F or WT-1 full length (FL), with Ra12, HIS or TAT fusions. Immunizations were performed at weeks 0, 3 and 9, and spleens were harvested at week 11. Splenocytes were then stimulated in vitro for 6 hours with medium alone, with a 15-mer peptide “p32” ([…], amino acids 125-139 of WT-1; found within the p117-139 peptide set forth in SEQ ID NO:2), with the DC2.4-WT-1/LAMP cell line, or with rRa12. CD4 cells were then stained for intracellular interferon-gamma and quantified by FACS analysis. A portion of these splenocytes were then stimulated in vitro for 8 days, after which CD4+ IFN+ cells were enumerated. After the 6 hour stimulation with p32, 0.33% of CD4-positive cells were positive for intracellular IFN-gamma staining in mice immunized with the truncated N-terminal construct rWT1-F-TAT. By contrast, only 0.10% of CD4-positive cells stained positive for intracellular IFN-gamma in mice immunized with rWT1-FL-TAT. […] By contrast, 0.24% of CD4-positive cells from mice immunized with the full-length WT1-TAT construct stained positive for intracellular IFN-gamma.

[6] = tested on: T cells of immunized B6 mice; assay: Proliferative T cell responses of immunized mice, thymidine incorporation assay; type: in vivo; settings: for stimulation index (SI), proliferative T cell response: mice immunized with WT1 peptides, thymidine incorporation (FIGS. 5A-5C)
Protocol: Peptides were dissolved in 1 ml sterile water for injection, and B6 mice were immunized 3 times at time intervals of three weeks. Adjuvants used were CFA/IFA, GM-CSF, and MONTANIDE®. […] In particular, lymphocytes were cultured in 96-well plates at 2×10^5 cells per well with 4×10^5 irradiated (3000 rads) syngeneic spleen cells and the designated peptide.

[7] = tested on: mouse B6 class I antigens (D^b or K^b molecules on the surface of RMA-S cells); assay: Peptide binding to C57Bl/6 murine class I MHC using RMA-S cells (flow cytometry); type: cell-based; settings: 9-mer peptides within p117-139
Protocol: In brief, RMA-S cells were cultured for 7 hours at 26° C. in complete medium supplemented with 1% FCS. A total of 10^6 RMA-S cells were added into each well of a 24-well plate and incubated either alone or with the designated peptide (25 ug/ml) for 16 hours at 26° C. and additional 3 hours at 37° C. in complete medium. Cells were then washed three times and stained with fluorescein isothiocyanate-conjugated anti D^b or anti-K^b antibody (PharMingen, San Diego, Calif.). Labeled cells were washed twice, resuspended and fixed in 500 ul of PBS with 1% paraformaldehyde and analyzed for fluorescence intensity in a flow cytometer (Becton-Dickinson FACSCALIBUR™). The percentage of increase of D^b or K^b molecules on the surface of the RMA-S cells was measured by increased mean fluorescent intensity of cells incubated with peptide compared with that of cells incubated in medium alone.

human cells = assay: Cellular cytotoxicity of WT1-ubiquitin fusion expressed in human cells; type: cell-based; settings: compared with native WT1
Description: The human ubiquitin open reading frame (SEQ ID NO:384) was mutated such that the nucleotides encoding the last amino acid encode an alanine instead of a glycine. […] The G->A mutation prevents co-translational cleavage of the […] protein by the proteases that normally process poly-ubiquitin during translation. The DNA and predicted amino acid sequence for the resulting construct are set forth in SEQ ID NOs:385 and 410, respectively. […] The resulting protein is predicted to be targeted to the proteosome by virtue of the added ubiquitin molecule.

WT1 p39-47: irrelevant HLA-A2 peptide used as tetramer control (DFAPPGASA; UniProt P19544 39-47, looked up, fragment)
staining of the WT1-specific CD8+ T cell clone by HLA-A2 tetramers incubated with an excess of the peptide [1]: did not stain the CD8+ T cell clone

ALLPAVPSL
WT1 immunized animals with CTL responses to the peptide [2]: 4 of 5 | generation of peptide specific CTL following immunization [3]: peptide specific CTL lines were generated

WT1 protein: WT1 protein used for immunization in a multiple dose titration in mice
WT1-specific antibody response (MPL-SE as adjuvant, doses 25 μg, 100 μg to 1000 μg WT1 protein, female C57/B6 mice (FIG. 19)): strong WT1-specific antibody response | cellular T-cell responses (MPL-SE as adjuvant, doses 25 μg, 100 μg to 1000 μg WT1 protein, female C57/B6 mice (FIG. 20)): cellular T-cell responses | myeloid/erythroid ratio in sternum and femur marrow (mice immunized with WT1 protein): normal | systemic histopathological or toxicological effects of immunization (mice, multiple dose titration): No systemic histopathological or toxicological effects | blood cell counts and blood chemistry (BUN, creatinine, bilirubin, albumin, globulin) [4]: within the normal range

VLDFAPPGA
staining of the WT1-specific CD8+ T cell clone by HLA-A2 tetramers incubated with an excess of the peptide [1]: specifically stained the CD8+ T cell clone | recognition by WT1 specific CD8+ T-cell clone (ELISPOT) [5]: specifically recognized

LDFAPPGAS
staining of the WT1-specific CD8+ T cell clone by HLA-A2 tetramers incubated with an excess of the peptide [1]: did not stain the CD8+ T cell clone

p136-144: 9-mer class I MHC binding peptide; human or mouse form not stated at this place (SCLESQPAI; UniProt P19544 136-144, looked up, fragment)
generation of peptide specific CTL following immunization [3]: CTL were generated

SCLESQPAI
generation of peptide specific CTL following immunization [3]: peptide specific CTL lines were generated

CMTWNQMNL
lysis of WT1 positive tumor cells by peptide specific CTL [3]: failed to lyse cell lines that expressed WT1 proteins | generation of peptide specific CTL following immunization ([3]; listed as p235-243): peptide specific CTL lines were generated

rWT1-FL-TAT: full-length WT1 as TAT fusion
CD4-positive cells positive for intracellular IFN-gamma staining (CD4 cells of splenocytes; 20 μg s.c. weeks 0, 3 and 9, 6 hour stimulation with p32): 0.10% | CD4+ cells with IFN-gamma staining (CD4 cells of splenocytes; 20 μg s.c., after the 8 day stimulation): 0.24%

VLDFAPPGASAYGSL [peptide 10]
recognition by WT1 specific CD8+ T-cell clone (ELISPOT) [5]: recognized

VLDFAPPGAS
recognition by WT1 specific CD8+ T-cell clone (ELISPOT) [5]: specifically recognized

VRRVSGVAPTLVRS [Peptide P299-313]
stimulation index (SI), proliferative T cell response [6]: 3.3

NAPYLPSCL
binding to H-2^b class I molecules [7]: bind to H-2^b class I molecules | lysis of targets incubated with 9-mer peptide by CTL generated by immunization with p117-139 ([3]; EL-4 pulsed with peptide, E:T 25:1 (FIG. 13A)): lysed targets | peptide specific lysis after restimulation of the p117-139 specific CTL line with the 9-mer ([3]; FIGS. 13B and 13C): demonstrated peptide specific lysis | lysis of WT1 positive tumor cells by peptide specific CTL [3]: showed lysis of a WT1 positive tumor cell line

QWAPVLDFAPPGASA [peptide 9]
recognition by WT1 specific CD8+ T-cell clone (ELISPOT) [5]: recognized

GATLKGVAAGSSSSVKWTE [p244-262]
stimulation indices (SI), proliferative T cell response to the immunizing peptides ([6]; Vaccine A immunized mice, bulk lines, peptide 25 ug/ml, 96 hr (FIG. 6A)): No proliferative response

RDLNALLPAVPSLGGGG [p6-22]
stimulation index (SI), proliferative T cell response [6]: 2.3

WT1-Ubiquitin fusion: mutated (G->A) human ubiquitin fused upstream of a splice variant of human WT1
cellular cytotoxicity when expressed in human cells (human cells): decreased cellular cytotoxicity

NLYQMTSQL
generation of peptide specific CTL following immunization [3]: not
